# From article PMC11945475, “Nasal Administration of a Nanoemulsion Based on Methyl Ferulate and Eugenol Encapsulated in Chitosan Oleate: Uptake Studies in the Central Nervous System” (Pharmaceutics, 2025)
# Read-outs that look alike come from different tables or passages of the source.
# Assays:
# [1] = for remaining percentage (residual % content) in NE: 672 h; for content in CS-OA NE used for cellular and in vivo studies / loading in NE: CS-OA NE; for final concentration in NE: loaded in CS-OA NE, immediately after preparation, four batches
# Method: The eugenol and Fer-Me quantification was performed using an HPLC apparatus, coupled with a UV-Vis Variable Wavelength Detector equipped with a deuterium lamp with a wavelength accuracy of ±1 nm (Agilent 1100 Series, model G1314A, Santa Clara, CA, USA). The mobile phase was constituted by a mixture of CH3CN and H2O 38:62 (v/v) acidified with formic acid at pH 3.25, the flow rate was maintained at 1 mL/min, and separations were performed at room temperature on a 150 mm × 4.6 mm, […]. SUPELCOSIL^TM LC-18 endcapped silica column (Supelco®, Merck, Milan, Italy). Eugenol was detected at a wavelength of 210 nm, while Fer-Me was detected at 320 nm. The injection volume was 20 µL for each sample. […] An ANOVA was performed to assess the feasibility of averaging the peak area values across three calibration curves for both the analytes. […] Both standard curve and NE samples were injected after dilution in a mixture of mobile phase and acetate buffer (5 mM); every analysis on each sample was done in triplicate.
# The yield of the process was verified by quantifying by HPLC analysis Fer-Me and eugenol loaded into the CS-OA NEs immediately after preparation and after 1, 2, and 4 weeks of storage at 4 °C. […] Fer-Me and eugenol were quantified by the HPLC method into the external aqueous phase, passing through the membrane as permeate.
# [2] = Encapsulation efficiency (ultrafiltration method, HPLC); assay type: physicochemical; details: CS-OA NE, ultrafiltration 50K MWCO
# Method: EE% was calculated by Equation (2):(2) EE%= total drug amount in CS-OA NE - drug amount in external phase/total drug amount in CS-OA NE × 100
# RPMI 2650 cells = system: RPMI 2650 cells
# Method: RPMI 2650 cells were used to evaluate in vitro the possible CS-OA NE cytotoxicity as well as Fer-Me and eugenol cell uptake.
# RPMI 2650 cells were cultured on 75 cm^2 polystyrene cell culture flasks in Advanced Minimum Essential Medium (A-MEM), which was supplemented with 10% fetal bovine serum (FBS), 2 mM L-glutamine, 100 IU/mL penicillin, and 100 μg/mL streptomycin. The cells were maintained in a humidified atmosphere containing 5% CO2 at 37 °C. Cells were split twice using trypsin-EDTA at 37 °C before being seeded and allowed to grow to approximately 90% confluence for 3-(4,5-dimethylthiazol-2-yl)-2,5-diphenyltetrazolium (MTT) assays and uptake studies. Cell counting was performed using Scepter™ 2.0 handheld automated cell counter (Merck Millipore, Milan, Italy).
# RPMI 2650 cells were seeded in a 12-well plate at a density of 8 × 10^4 cells/well containing 2 mL of culture A-MEM. […] The corresponding solution of pure compounds (approximated to 250 µM and 600 µM concentrations of Fer-Me and eugenol, respectively), and raw Fer-Me (corresponding to a 250 µM solution) added directly to the wells as powder, were used as comparison. In particular, 2 mL of diluted CS-OA NE or the corresponding solution of pure compounds was added to the test wells, and the plate was incubated for pre-determined interval times (10, 30, and 60 min) in a humidified 5% CO2 atmosphere at 37 °C. As for raw Fer-Me incubation, 0.1 mg was accurately weighed (analytical balance Sartorius CP 225D), added to each well containing 2 mL of complete A-MEM, and incubated at 37 °C in an orbital shaker for the same pre-determined interval times above indicated. All media were removed at the end of the incubation. […] After thawing, the lysate was centrifuged twice (16,000× g for 10 min) and the supernatant was immediately injected into the HPLC apparatus (20 μL) to quantify Fer-Me and eugenol (see below). The final number of cells was evaluated on untreated wells after their trypsinization and counted using the Scepter^TM 2.0 automated cell counter (Merck Millipore, Milan, Italy). Each reported value represents the mean of three independent incubation experiments expressed as nanomoles of compounds for 10^6 cells. The uptake efficiencies were calculated as the compound amount quantified in cell lysate 10 min after the onset of the incubation compared to the initial compound amount incubated in cell media (%). […]
# The quantification of eugenol and Fer-Me was performed by using a modular HPLC system composed of a pump (model LC-40D), DAD detector (model SPD-M40, Shimadzu, Kyoto, Japan), as well as an injection valve with a 20 μL sample loop (model 7725; Rheodyne, IDEX, Torrance, CA, USA). […]
Compound,remaining percentage (residual % content) in NE [1],content in CS-OA NE used for cellular and in vivo studies [1],loading in NE [1],final concentration in NE [1],EE% (encapsulation efficiency) [2] [%],uptake efficiency at 10 min (RPMI 2650 cells) [%],"intracellular amount (RPMI 2650 cells; human, 10 min, 600 µM) [nmol/10^6 cells]","uptake efficiency at 10 min (RPMI 2650 cells; human, 10 min, 600 µM) [%]","intracellular amount (RPMI 2650 cells; human, 60 min, 600 µM) [nmol/10^6 cells]"
"COC(=O)/C=C/c1ccc(O)c(OC)c1 [Fer-Me, methyl ferulate]",about 81%,about 5 mM,about 1 mg/mL,123.0 ± 0.2 µg per 100 µL of NE,90.2,0.80 ± 0.12,,,
C=CCc1ccc(O)c(OC)c1 [eugenol],about 71%,~12 mM,~2 mg/mL,260.0 ± 0.5 µg per 100 µL of NE,87.9,,60.80 ± 5.09,0.77 ± 0.10,57.41 ± 2.80
